Laboratory results: ChEMBL document CHEMBL1154996, “Inhibitors of dipeptidyl peptidase 8 and dipeptidyl peptidase 9. Part 2: isoindoline containing inhibitors” (Bioorg Med Chem Lett, 2008)
Calls of active or inactive are those of the source. No cut-off for these calls is given here.

Key:
Dipeptidyl peptidase 4 = Dipeptidyl peptidase 4 (Homo sapiens, UniProt P27487); assay: Inhibition of DPP4
Dipeptidyl peptidase 2 = Dipeptidyl peptidase 2 (Homo sapiens, UniProt Q9UHL4); assay: Inhibition of DPP2
Dipeptidyl peptidase 8 = Dipeptidyl peptidase 8 (Homo sapiens, UniProt Q6V1X1); assay: Inhibition of DPP8
Dipeptidyl peptidase 9 = Dipeptidyl peptidase 9 (Homo sapiens, UniProt Q86TI2); assay: Inhibition of DPP9
Sequence of Dipeptidyl peptidase 9 (Q86TI2 whole entry): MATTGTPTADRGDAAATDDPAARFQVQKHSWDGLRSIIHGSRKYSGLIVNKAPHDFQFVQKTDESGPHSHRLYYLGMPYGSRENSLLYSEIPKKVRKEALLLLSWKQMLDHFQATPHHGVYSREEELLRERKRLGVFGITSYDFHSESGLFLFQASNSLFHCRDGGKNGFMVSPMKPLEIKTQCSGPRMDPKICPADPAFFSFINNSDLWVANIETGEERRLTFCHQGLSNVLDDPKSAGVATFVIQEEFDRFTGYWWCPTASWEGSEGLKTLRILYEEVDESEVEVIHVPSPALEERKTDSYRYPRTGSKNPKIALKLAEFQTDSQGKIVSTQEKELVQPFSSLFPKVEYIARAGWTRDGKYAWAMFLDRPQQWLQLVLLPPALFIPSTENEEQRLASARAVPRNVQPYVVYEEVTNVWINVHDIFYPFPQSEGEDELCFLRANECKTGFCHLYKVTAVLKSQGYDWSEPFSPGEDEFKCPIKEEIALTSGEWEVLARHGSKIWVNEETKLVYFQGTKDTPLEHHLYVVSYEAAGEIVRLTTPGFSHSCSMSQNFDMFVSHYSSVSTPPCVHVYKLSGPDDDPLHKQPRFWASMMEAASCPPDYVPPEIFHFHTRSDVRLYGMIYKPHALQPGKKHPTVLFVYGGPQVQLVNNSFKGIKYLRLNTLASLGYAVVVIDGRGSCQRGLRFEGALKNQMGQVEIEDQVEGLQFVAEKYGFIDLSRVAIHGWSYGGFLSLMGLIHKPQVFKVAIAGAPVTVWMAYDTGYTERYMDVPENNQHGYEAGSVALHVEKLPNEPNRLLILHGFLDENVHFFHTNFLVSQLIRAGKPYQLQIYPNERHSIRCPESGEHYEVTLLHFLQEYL

Sequence of Dipeptidyl peptidase 8 (Q6V1X1 whole entry): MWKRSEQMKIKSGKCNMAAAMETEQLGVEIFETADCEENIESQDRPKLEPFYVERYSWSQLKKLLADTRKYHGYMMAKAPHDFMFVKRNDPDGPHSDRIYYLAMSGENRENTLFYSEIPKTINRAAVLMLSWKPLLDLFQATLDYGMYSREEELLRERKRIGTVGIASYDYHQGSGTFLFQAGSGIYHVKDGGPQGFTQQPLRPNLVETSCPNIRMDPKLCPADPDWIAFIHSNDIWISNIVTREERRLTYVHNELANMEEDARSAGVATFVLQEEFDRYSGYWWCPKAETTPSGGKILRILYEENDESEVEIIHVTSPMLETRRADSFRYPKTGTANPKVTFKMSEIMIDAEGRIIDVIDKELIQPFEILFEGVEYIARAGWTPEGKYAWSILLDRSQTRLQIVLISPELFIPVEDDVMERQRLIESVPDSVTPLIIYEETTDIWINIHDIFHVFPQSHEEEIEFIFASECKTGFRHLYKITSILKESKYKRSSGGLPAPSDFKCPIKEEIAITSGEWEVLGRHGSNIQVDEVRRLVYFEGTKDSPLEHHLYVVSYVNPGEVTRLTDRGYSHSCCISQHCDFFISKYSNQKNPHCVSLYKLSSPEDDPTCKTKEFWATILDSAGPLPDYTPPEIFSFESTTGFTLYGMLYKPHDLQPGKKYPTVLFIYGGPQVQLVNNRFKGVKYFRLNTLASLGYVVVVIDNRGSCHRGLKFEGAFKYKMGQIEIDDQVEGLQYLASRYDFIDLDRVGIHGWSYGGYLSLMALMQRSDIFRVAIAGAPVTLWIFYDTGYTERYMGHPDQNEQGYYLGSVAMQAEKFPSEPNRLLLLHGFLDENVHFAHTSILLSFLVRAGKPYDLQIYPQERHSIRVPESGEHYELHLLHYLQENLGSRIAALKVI

Row | Structure (SMILES) | IC50 (Dipeptidyl peptidase 4) [µM] | IC50 (Dipeptidyl peptidase 2) [µM] | IC50 (Dipeptidyl peptidase 8) [µM] | IC50 (Dipeptidyl peptidase 9) [µM] | Activity (Dipeptidyl peptidase 4)
1 | N[C@@H](CCCCNCc1ccccc1)C(=O)N1Cc2ccccc2C1 | > 50 |  |  |  | 
2 | O=C([C@@H]1C[C@H](Nc2ccc3ccccc3c2)CN1)N1Cc2ccccc2C1 | > 100 |  |  |  | 
3 | O=C([C@@H]1C[C@H](N(c2ccc3ccccc3c2)c2ccc3ccccc3c2)CN1)N1Cc2ccccc2C1 |  | > 100 |  |  | 
4 | NCCCC[C@H](N)C(=O)N1Cc2ccccc2C1 | 161 |  |  |  | 
5 | N[C@@H](CCCCNC(=O)OCc1ccccc1)C(=O)N1Cc2ccccc2C1 | 245 | 2.5 |  |  | 
6 | CC[C@H](C)[C@H](N)C(=O)N1Cc2cccc(C)c2C1 | > 100 | > 100 | > 100 | > 100 | 
7 | N[C@@H](CCCCN(c1ccc2ccccc2c1)c1ccc2ccccc2c1)C(=O)N1Cc2ccccc2C1 | > 31.2 |  |  |  | 
8 | CC[C@@H](C)[C@H](N)C(=O)N1Cc2ccc(C)cc2C1 | > 100 |  |  |  | 
9 | CC[C@@H](C)[C@H](N)C(=O)N1Cc2cccc(F)c2C1 | > 100 |  |  |  | 
10 | CC[C@H](C)[C@H](N)C(=O)N1Cc2cccc(F)c2C1 | > 100 |  |  |  | 
11 | N[C@H]1CN[C@H](C(=O)N2Cc3ccccc3C2)C1 | > 500 |  |  |  | 
12 | CC[C@H](C)[C@H](N)C(=O)N1Cc2ccc(I)cc2C1 | > 100 | 2.6 | > 25 | > 50 | 
13 | CC[C@@H](C)[C@H](N)C(=O)N1Cc2ccc(C(F)(F)F)cc2C1 | > 100 | 12.6 | > 100 | > 100 | 
14 | O=C([C@@H]1C[C@H](NCc2ccccc2)CN1)N1Cc2ccccc2C1 | > 250 |  |  |  | 
15 | N[C@@H](CCCCNc1ccc2ccccc2c1)C(=O)N1Cc2ccccc2C1 | 178 |  |  |  | 
16 | CC[C@H](C)[C@H](N)C(=O)N1Cc2ccc(C)cc2C1 | > 100 |  |  |  | 
17 | O=C([C@@H]1C[C@H](N(c2cccc3ccccc23)c2cccc3ccccc23)CN1)N1Cc2ccccc2C1 |  |  |  |  | inactive
18 | O=C([C@@H]1C[C@H](Nc2cccc3ccccc23)CN1)N1Cc2ccccc2C1 | 4.97 |  |  |  | 
19 | O=C([C@@H]1C[C@@H](Nc2ccc3ccccc3c2)CN1)N1Cc2ccccc2C1 | > 250 |  |  |  | 
20 | CC[C@H](C)[C@H](N)C(=O)N1Cc2ccc(C(C)(C)C)cc2C1 | > 100 | > 100 | > 100 | > 100 | 
21 | CC[C@H](C)[C@H](N)C(=O)N1Cc2ccc([N+](=O)[O-])cc2C1 | > 50 | 66 | > 50 | > 25 | 
22 | CC[C@H](C)[C@H](N)C(=O)N1Cc2ccc(Br)cc2C1 | > 100 |  |  |  | 
23 | O=C([C@@H]1C[C@@H](N(Cc2ccccc2)Cc2ccccc2)CN1)N1Cc2ccccc2C1 | > 500 | 4.5 |  | > 25 | 
24 | CC[C@H](C)[C@H](N)C(=O)N1Cc2ccc(C(F)(F)F)cc2C1 | > 100 | 13 | > 100 | > 100 | 
25 | N[C@@H](CCCCN(Cc1ccccc1)Cc1ccccc1)C(=O)N1Cc2ccccc2C1 | > 62.5 |  |  |  | 
26 | O=C([C@@H]1C[C@@H](NCc2ccccc2)CN1)N1Cc2ccccc2C1 | > 1000 |  |  |  | 
27 | CC[C@H](C)[C@H](N)C(=O)N1Cc2cccnc2C1 | > 100 | > 100 |  |  | 
28 | CC[C@H](C)[C@H](N)C(=O)N1Cc2ccc(N=[N+]=[N-])cc2C1 | > 100 | > 50 | > 100 |  | 
